Assay results published in PubChem BioAssay AID1963854 (Molecular Pharmacology Branch, DTP, NCI, 2024).

Test system: 186277-243-T-J2-PDC complex spheroid viability
Assay: Anticancer human tumor 186277-243-T-J2-PDC patient-derived colon adenocarcinoma cell line growth inhibition [POLQ]
Details: for IC50: curve of first compound; for viability, T/C: stronger effect = lower value
Method in brief: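 Patient-derived tumour cells were co-cultured with HUVEC and mesenchymal stem cells as multicellular spheroids at 37 °C. They were treated with POLQ inhibitors (novobiocin, ART-558, RP6685) alone or combined with other agents. Top concentrations were at or near clinical Cmax (otherwise 10 microM; SN-38 at 1 microM), decreasing in half-log steps.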

[1] = second compound 0.0316 µM, first compound 0.0316 µM
[2] = second compound 0.0316 µM, first compound 0.1 µM
[3] = second compound 0.1 µM, first compound 0.0316 µM
[4] = second compound 0.1 µM, first compound 0.1 µM
[5] = second compound 0.316 µM, first compound 0.0316 µM
[6] = second compound 0.316 µM, first compound 0.1 µM
[7] = second compound 1 µM, first compound 0.0316 µM
[8] = second compound 1 µM, first compound 0.1 µM
[9] = second compound 3.16 µM, first compound 0.0316 µM
[10] = second compound 3.16 µM, first compound 0.1 µM
[11] = second compound 10 µM, first compound 0.0316 µM
[12] = second compound 10 µM, first compound 0.1 µM
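Further: spheroids exposed to compounds for seven days.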
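Wherever viability, T/C is given: 100% = DMSO vehicle control viability.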

Q: How did the IC50 (second compound 0.0316 µM) turn out when `CCc1cc2c(N3CCc4c(cc(Cn5ccnc5)cc4-c4cn(C)nc4C(F)(F)F)C3=O)ccnc2c(OC)n1` + Cc1cccc(N(C)C(=O)C2C(O)CCN2c2nc(C)cc(C(F)(F)F)c2C#N)c1 was run?
A: Its IC50 is > 10 µM.

Q: And the IC50 (second compound 0.1 µM)?
A: Its IC50 is > 10 µM.

Q: What about the IC50 (second compound 0.316 µM) of the same compound?
A: The IC50 was > 10 µM.

Q: What about the IC50 (second compound 1 µM) of the same compound?
A: The IC50 was > 10 µM.

Q: What about the IC50 (second compound 3.16 µM) of the same compound?
A: Its IC50 is > 10 µM.

Q: What about the IC50 (second compound 10 µM) of the same compound?
A: The IC50 was > 10 µM.

Q: What about the viability, T/C [1] of the same compound?
A: The viability, T/C was 96.1%.

Q: What about the viability, T/C [2] of the same compound?
A: The viability, T/C was 82.8%.

Q: And the viability, T/C (second compound 0.0316 µM, first compound 0.316 µM)?
A: The viability, T/C was 96.2%.

Q: What about the viability, T/C (second compound 0.0316 µM, first compound 1 µM) of the same compound?
A: The viability, T/C was 96.2%.

Q: And the viability, T/C (second compound 0.0316 µM, first compound 3.16 µM)?
A: The viability, T/C was 106%.

Q: What about the viability, T/C (second compound 0.0316 µM, first compound 10 µM) of the same compound?
A: Its viability, T/C is 100%.

Q: And the viability, T/C [3]?
A: Its viability, T/C is 90.7%.

Q: And the viability, T/C [4]?
A: Its viability, T/C is 98.5%.

Q: What about the viability, T/C (second compound 0.1 µM, first compound 0.316 µM) of the same compound?
A: Its viability, T/C is 107%.

Q: And the viability, T/C (second compound 0.1 µM, first compound 1 µM)?
A: Its viability, T/C is 88.6%.

Q: What about the viability, T/C (second compound 0.1 µM, first compound 3.16 µM) of the same compound?
A: Its viability, T/C is 112%.

Q: What about the viability, T/C (second compound 0.1 µM, first compound 10 µM) of the same compound?
A: Its viability, T/C is 103%.

Q: And the viability, T/C [5]?
A: Its viability, T/C is 96.7%.

Q: And the viability, T/C [6]?
A: The viability, T/C was 95.2%.

Q: What about the viability, T/C (second compound 0.316 µM, first compound 0.316 µM) of the same compound?
A: The viability, T/C was 97.2%.

Q: What about the viability, T/C (second compound 0.316 µM, first compound 1 µM) of the same compound?
A: Its viability, T/C is 106%.

Q: And the viability, T/C (second compound 0.316 µM, first compound 3.16 µM)?
A: Its viability, T/C is 109%.

Q: And the viability, T/C (second compound 0.316 µM, first compound 10 µM)?
A: The viability, T/C was 107%.

Q: What about the viability, T/C [7] of the same compound?
A: Its viability, T/C is 102%.

Q: And the viability, T/C [8]?
A: The viability, T/C was 127%.

Q: And the viability, T/C (second compound 1 µM, first compound 0.316 µM)?
A: The viability, T/C was 107%.

Q: And the viability, T/C (second compound 1 µM, first compound 1 µM)?
A: Its viability, T/C is 100%.

Q: And the viability, T/C (second compound 1 µM, first compound 3.16 µM)?
A: Its viability, T/C is 93.6%.

Q: What about the viability, T/C (second compound 1 µM, first compound 10 µM) of the same compound?
A: The viability, T/C was 102%.

Q: And the viability, T/C [9]?
A: The viability, T/C was 93.8%.

Q: What about the viability, T/C [10] of the same compound?
A: Its viability, T/C is 97.3%.

Q: What about the viability, T/C (second compound 3.16 µM, first compound 0.316 µM) of the same compound?
A: Its viability, T/C is 100%.

Q: What about the viability, T/C (second compound 3.16 µM, first compound 1 µM) of the same compound?
A: The viability, T/C was 118%.

Q: And the viability, T/C (second compound 3.16 µM, first compound 3.16 µM)?
A: The viability, T/C was 119%.

Q: What about the viability, T/C (second compound 3.16 µM, first compound 10 µM) of the same compound?
A: Its viability, T/C is 106%.

Q: What about the viability, T/C [11] of the same compound?
A: Its viability, T/C is 114%.

Q: What about the viability, T/C [12] of the same compound?
A: The viability, T/C was 94.7%.

Q: What about the viability, T/C (second compound 10 µM, first compound 0.316 µM) of the same compound?
A: The viability, T/C was 111%.

Q: And the viability, T/C (second compound 10 µM, first compound 1 µM)?
A: The viability, T/C was 96.8%.

Q: What about the viability, T/C (second compound 10 µM, first compound 3.16 µM) of the same compound?
A: The viability, T/C was 108%.

Q: And the viability, T/C (second compound 10 µM, first compound 10 µM)?
A: Its viability, T/C is 109%.

Q: With `Cn1ncnc1[C@H]1c2n[nH]c(=O)c3cc(F)cc(c23)N[C@@H]1c1ccc(F)cc1` + Cc1cccc(N(C)C(=O)C2C(O)CCN2c2nc(C)cc(C(F)(F)F)c2C#N)c1 as the compound, how does the IC50 (second compound 0.0316 µM) read?
A: Its IC50 is > 0.1 µM.

Q: And the IC50 (second compound 0.1 µM)?
A: Its IC50 is > 0.1 µM.

Q: And the IC50 (second compound 0.316 µM)?
A: The IC50 was > 0.1 µM.

Q: And the IC50 (second compound 1 µM)?
A: Its IC50 is > 0.1 µM.

Q: What about the IC50 (second compound 3.16 µM) of the same compound?
A: Its IC50 is > 0.1 µM.

Q: And the IC50 (second compound 10 µM)?
A: The IC50 was > 0.1 µM.

Q: What about the viability, T/C (second compound 0.0316 µM, first compound 0.000316 µM) of the same compound?
A: The viability, T/C was 101%.

Q: And the viability, T/C (second compound 0.0316 µM, first compound 0.001 µM)?
A: Its viability, T/C is 102%.

Q: And the viability, T/C (second compound 0.0316 µM, first compound 0.00316 µM)?
A: The viability, T/C was 104%.

Q: And the viability, T/C (second compound 0.0316 µM, first compound 0.01 µM)?
A: The viability, T/C was 106%.

Q: And the viability, T/C [1]?
A: Its viability, T/C is 118%.

Q: What about the viability, T/C [2] of the same compound?
A: Its viability, T/C is 120%.

Q: And the viability, T/C (second compound 0.1 µM, first compound 0.000316 µM)?
A: Its viability, T/C is 87.9%.

Q: What about the viability, T/C (second compound 0.1 µM, first compound 0.001 µM) of the same compound?
A: The viability, T/C was 99.4%.

Q: And the viability, T/C (second compound 0.1 µM, first compound 0.00316 µM)?
A: Its viability, T/C is 113%.

Q: And the viability, T/C (second compound 0.1 µM, first compound 0.01 µM)?
A: The viability, T/C was 106%.

Q: What about the viability, T/C [3] of the same compound?
A: Its viability, T/C is 113%.

Q: And the viability, T/C [4]?
A: The viability, T/C was 119%.

Q: And the viability, T/C (second compound 0.316 µM, first compound 0.000316 µM)?
A: Its viability, T/C is 90.3%.

Q: What about the viability, T/C (second compound 0.316 µM, first compound 0.001 µM) of the same compound?
A: Its viability, T/C is 92.6%.

Q: And the viability, T/C (second compound 0.316 µM, first compound 0.00316 µM)?
A: Its viability, T/C is 102%.

Q: What about the viability, T/C (second compound 0.316 µM, first compound 0.01 µM) of the same compound?
A: The viability, T/C was 115%.

Q: What about the viability, T/C [5] of the same compound?
A: Its viability, T/C is 145%.

Q: And the viability, T/C [6]?
A: Its viability, T/C is 122%.

Q: And the viability, T/C (second compound 1 µM, first compound 0.000316 µM)?
A: Its viability, T/C is 89%.

Q: And the viability, T/C (second compound 1 µM, first compound 0.001 µM)?
A: Its viability, T/C is 105%.

Q: What about the viability, T/C (second compound 1 µM, first compound 0.00316 µM) of the same compound?
A: Its viability, T/C is 107%.

Q: And the viability, T/C (second compound 1 µM, first compound 0.01 µM)?
A: The viability, T/C was 117%.

Q: And the viability, T/C [7]?
A: The viability, T/C was 119%.

Q: And the viability, T/C [8]?
A: The viability, T/C was 111%.

Q: What about the viability, T/C (second compound 3.16 µM, first compound 0.000316 µM) of the same compound?
A: The viability, T/C was 101%.

Q: What about the viability, T/C (second compound 3.16 µM, first compound 0.001 µM) of the same compound?
A: The viability, T/C was 106%.

Q: And the viability, T/C (second compound 3.16 µM, first compound 0.00316 µM)?
A: Its viability, T/C is 111%.

Q: And the viability, T/C (second compound 3.16 µM, first compound 0.01 µM)?
A: Its viability, T/C is 113%.

Q: What about the viability, T/C [9] of the same compound?
A: The viability, T/C was 103%.

Q: What about the viability, T/C [10] of the same compound?
A: The viability, T/C was 105%.

Q: What about the viability, T/C (second compound 10 µM, first compound 0.000316 µM) of the same compound?
A: Its viability, T/C is 99.5%.

Q: And the viability, T/C (second compound 10 µM, first compound 0.001 µM)?
A: Its viability, T/C is 92.8%.

Q: And the viability, T/C (second compound 10 µM, first compound 0.00316 µM)?
A: The viability, T/C was 95.8%.

Q: And the viability, T/C (second compound 10 µM, first compound 0.01 µM)?
A: Its viability, T/C is 116%.

Q: And the viability, T/C [11]?
A: Its viability, T/C is 113%.

Q: And the viability, T/C [12]?
A: Its viability, T/C is 113%.
